For the assay, the system named is CD2F1 mice, L1210 leukemia ip, survival T/C. Nature of the assay: NCI In Vivo Anticancer Drug Screen. Data for tumor model L1210 Leukemia (intraperitoneal) in CD2F1 (CDF1) mice. As to conditions: higher = longer survival. Summed up: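 Compound-dosed mice with transplantable tumor versus matched vehicle controls; endpoint ratio T/C reported.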
[1] abbreviates: endpoint: mean survival time, dose: 100.0 mg/kg/injection, schedule: Q01DX001 (ip), vehicle: saline with Tween-80.
Where [2] appears, read: endpoint: mean survival time, dose: 200.0 mg/kg/injection, schedule: Q01DX001 (ip), vehicle: saline with Tween-80.
Setting [3] is: endpoint: mean survival time, dose: 400.0 mg/kg/injection, schedule: Q01DX001 (ip), vehicle: saline with Tween-80.
Where [4] appears, read: endpoint: mean survival time, dose: 100.0 mg/kg/injection, schedule: Q01DX009 (ip), vehicle: saline with Tween-80.
Setting [5] is: endpoint: mean survival time, dose: 200.0 mg/kg/injection, schedule: Q01DX009 (ip), vehicle: saline with Tween-80.
Where [6] appears, read: endpoint: mean survival time, dose: 400.0 mg/kg/injection, schedule: Q01DX009 (ip), vehicle: saline with Tween-80.
The mark [7] stands for this setting: endpoint: mean survival time, dose: 100.0 mg/kg/injection, schedule: Q04DX003 (ip), vehicle: saline with Tween-80.
[8] abbreviates: endpoint: mean survival time, dose: 200.0 mg/kg/injection, schedule: Q04DX003 (ip), vehicle: saline with Tween-80.
The mark [9] stands for this setting: endpoint: mean survival time, dose: 400.0 mg/kg/injection, schedule: Q04DX003 (ip), vehicle: saline with Tween-80.
Setting [10] is: endpoint: mean survival time, dose: 50.0 mg/kg/injection, schedule: Q01DX009 (ip), vehicle: saline.
Where [11] appears, read: endpoint: mean survival time, dose: 100.0 mg/kg/injection, schedule: Q01DX009 (ip), vehicle: saline.
[12] abbreviates: endpoint: mean survival time, dose: 200.0 mg/kg/injection, schedule: Q01DX009 (ip), vehicle: saline.
The mark [13] stands for this setting: endpoint: mean survival time, dose: 12.5 mg/kg/injection, schedule: Q04DX002 (ip), vehicle: saline with Tween-80.

Inconclusive results and toxic doses are left out.

For the molecule `CCCCCCCCCCCCCCCCOc1ccc(C(=O)CC(=O)OC)cc1`, the T/C is, setting by setting: under setting [1], 86 % of control; under setting [2], 89 % of control; under setting [3], 91 % of control.

Regarding `O=C1CC2C=CCC12` (configuration not stated), the T/C is 98 % of control under setting [4], 98 % of control under setting [5] and 100 % of control under setting [6].

Regarding `O=C(Nc1cccc(Cl)c1)c1ccccc1`, the T/C is 103 % of control under setting [4]; 91 % of control under setting [7]; 89 % of control under setting [5]; 110 % of control under setting [8]; 98 % of control under setting [6]; 94 % of control under setting [9].

With `O=C1NC(=O)C([N+](=O)[O-])=C(O)C1=O`, the T/C is 102 % of control under setting [10], 93 % of control under setting [11] and 90 % of control under setting [12].

Turning to `O=C1c2ccccc2C(=O)N1CO`, the T/C under setting [1] is 108 % of control; the T/C under setting [4] was 101 % of control; the T/C under setting [2] is 106 % of control; the T/C under setting [5] was 97 % of control; the T/C under setting [3] is 104 % of control; the T/C under setting [6] was 101 % of control.

As for `O=S(=O)(CS(=O)(=O)Nc1ccccc1)Nc1ccccc1`, the T/C under setting [7] is 109 % of control.

On to `COc1ccc2c(c1)OC(C)(C)C(c1ccccc1)=C2c1ccc(OCCN2CCCC2)cc1`, for which the T/C (endpoint: mean survival time, dose: 75.0 mg/kg/injection, schedule: Q01DX001 (ip), vehicle: saline) is 98 % of control.

Consider `CCOc1ccc(C(C)c2cc3c(cc2OC)OCO3)cc1` (configuration not stated), for which the T/C reads like this: (endpoint: median survival time, dose: 25.0 mg/kg/injection, schedule: Q01DX009 (ip), vehicle: distilled water + Tween-80) 104 % of control; (endpoint: median survival time, dose: 25.0 mg/kg/injection, schedule: Q01DX009 (ip), vehicle: saline with Tween-80) 117 % of control; (endpoint: median survival time, dose: 50.0 mg/kg/injection, schedule: Q01DX009 (ip), vehicle: distilled water + Tween-80) 104 % of control; (endpoint: median survival time, dose: 50.0 mg/kg/injection, schedule: Q01DX009 (ip), vehicle: saline with Tween-80) 109 % of control; (endpoint: median survival time, dose: 100.0 mg/kg/injection, schedule: Q01DX009 (ip), vehicle: distilled water + Tween-80) 109 % of control; (endpoint: median survival time, dose: 100.0 mg/kg/injection, schedule: Q01DX009 (ip), vehicle: saline with Tween-80) 110 % of control. Further, the T/C reads like this: (endpoint: median survival time, dose: 200.0 mg/kg/injection, schedule: Q01DX009 (ip), vehicle: distilled water + Tween-80) 124 % of control; (endpoint: median survival time, dose: 200.0 mg/kg/injection, schedule: Q01DX009 (ip), vehicle: saline with Tween-80) 150 % of control.

As to `CCCCCCCCCCCC(CCCCCCCCCC)CCCCCCCCCC`, the T/C reads like this: (endpoint: mean survival time, dose: 100.0 mg/kg/injection, schedule: Q01DX001 (ip), vehicle: saline sonified) 101 % of control; (endpoint: mean survival time, dose: 200.0 mg/kg/injection, schedule: Q01DX001 (ip), vehicle: saline sonified) 104 % of control; (endpoint: mean survival time, dose: 400.0 mg/kg/injection, schedule: Q01DX001 (ip), vehicle: saline sonified) 108 % of control.

With `O=[N+]([O-])c1ccccc1N=C(c1ccccc1)N(O)c1ccccc1`, the T/C (endpoint: mean survival time, dose: 9.4 mg/kg/injection, schedule: Q01DX009 (ip), vehicle: saline with Tween-80) was 101 % of control; the T/C (endpoint: mean survival time, dose: 9.4 mg/kg/injection, schedule: Q04DX003 (ip), vehicle: saline with Tween-80) is 98 % of control; the T/C (endpoint: mean survival time, dose: 18.8 mg/kg/injection, schedule: Q01DX001 (ip), vehicle: saline) is 101 % of control; the T/C (endpoint: mean survival time, dose: 18.8 mg/kg/injection, schedule: Q01DX009 (ip), vehicle: saline with Tween-80) was 104 % of control; the T/C (endpoint: mean survival time, dose: 18.8 mg/kg/injection, schedule: Q04DX003 (ip), vehicle: saline with Tween-80) is 100 % of control; the T/C (endpoint: mean survival time, dose: 37.5 mg/kg/injection, schedule: Q01DX001 (ip), vehicle: saline) is 102 % of control.

As to `CCCCCCCCCCCCCCCC[N+](C)(CCO)Cc1ccccc1` (configuration not stated), the T/C is 100 % of control (endpoint: mean survival time, dose: 3.13 mg/kg/injection, schedule: Q04DX002 (ip), vehicle: saline with Tween-80); 100 % of control (endpoint: mean survival time, dose: 6.25 mg/kg/injection, schedule: Q04DX002 (ip), vehicle: saline with Tween-80); 96 % of control under setting [13].

Turning to `O=C(Nc1ccc(C2=NCCN2)cc1)c1ccc(C(=O)Nc2ccc(C3=NCCN3)cc2)c(NC(=O)c2ccc(C(=O)Nc3cc(C(=O)Nc4ccc(C5=NCCN5)cc4)ccc3C(=O)Nc3ccc(C4=NCCN4)cc3)cc2)c1`, the T/C runs as follows: (endpoint: mean survival time, dose: 12.5 mg/kg/injection, schedule: Q01DX008 (iv), vehicle: other) 101 % of control; (endpoint: mean survival time, dose: 25.0 mg/kg/injection, schedule: Q01DX008 (iv), vehicle: other) 101 % of control; (endpoint: mean survival time, dose: 50.0 mg/kg/injection, schedule: Q01DX008 (iv), vehicle: other) 103 % of control.

For `CC(=O)OCC1OC(OC(C)=O)C(On2nnc3c(-c4ccccc4)c(C)nn32)C(OC(C)=O)C1OC(C)=O` (configuration not stated), the T/C is 93 % of control (endpoint: median survival time, dose: 12.5 mg/kg/injection, schedule: Q01DX005 (ip), vehicle: Klucel (hydroxypropylcellulose) (HPC)); 95 % of control (endpoint: median survival time, dose: 25.0 mg/kg/injection, schedule: Q01DX005 (ip), vehicle: Klucel (hydroxypropylcellulose) (HPC)); 97 % of control (endpoint: median survival time, dose: 50.0 mg/kg/injection, schedule: Q01DX005 (ip), vehicle: Klucel (hydroxypropylcellulose) (HPC)); 95 % of control (endpoint: median survival time, dose: 100.0 mg/kg/injection, schedule: Q01DX005 (ip), vehicle: Klucel (hydroxypropylcellulose) (HPC)).

On to `O=[N+]([O-])c1ccc(/C=C2\c3ccccc3-c3nc4ccccc4nc32)cc1`, for which the T/C is, setting by setting: (endpoint: mean survival time, dose: 75.0 mg/kg/injection, schedule: Q01DX009 (ip), vehicle: saline) 86 % of control; (endpoint: mean survival time, dose: 150.0 mg/kg/injection, schedule: Q01DX009 (ip), vehicle: saline) 88 % of control; (endpoint: mean survival time, dose: 300.0 mg/kg/injection, schedule: Q01DX009 (ip), vehicle: saline) 95 % of control.

Consider `Cc1cc(NCCCN(C)C)c2ccc3c(ccc4c(NCCCN(C)C)cc(C)nc43)c2n1`, for which the T/C is 95 % of control (endpoint: median survival time, dose: 0.38 mg/kg/injection, schedule: Q01DX009 (ip), vehicle: saline); 93 % of control (endpoint: median survival time, dose: 0.75 mg/kg/injection, schedule: Q01DX009 (ip), vehicle: saline); 113 % of control (endpoint: median survival time, dose: 1.5 mg/kg/injection, schedule: Q01DX009 (ip), vehicle: saline); 110 % of control (endpoint: median survival time, dose: 3.0 mg/kg/injection, schedule: Q01DX009 (ip), vehicle: saline).

As to `CC(=O)OC(c1ccccc1)C(Cl)(Cl)Cl` (configuration not stated), the T/C is, setting by setting: under setting [7], 100 % of control; under setting [8], 105 % of control; under setting [9], 105 % of control.

For the molecule `CC1CC[N-]CC1.CC1CC[N-]CC1.CC1CC[N-]CC1.CC1CC[N-]CC1.[Cl][Rh][Cl]`, the T/C is 97 % of control (endpoint: mean survival time, dose: 50.0 mg/kg/injection, schedule: Q01DX009 (ip), vehicle: saline sonified); 97 % of control (endpoint: mean survival time, dose: 100.0 mg/kg/injection, schedule: Q01DX009 (ip), vehicle: saline sonified); 111 % of control under setting [7]; 86 % of control under setting [8].

Turning to `NC(CS)=NC1CCCCC1`, the T/C is 104 % of control under setting [13] and 96 % of control (endpoint: mean survival time, dose: 25.0 mg/kg/injection, schedule: Q04DX002 (ip), vehicle: saline with Tween-80).

With `CC1=NN(c2ccccc2)C(=O)CC1`, the T/C is, setting by setting: under setting [7], 101 % of control; under setting [8], 101 % of control; under setting [9], 103 % of control.

For the molecule `Cc1ccc([PH+](c2ccc(C)cc2)c2ccc(C)cc2)cc1.Cc1ccc([PH+](c2ccc(C)cc2)c2ccc(C)cc2)cc1.[Cl][Hg][Cl]`, the T/C runs as follows: under setting [10], 103 % of control; under setting [11], 95 % of control; under setting [12], 91 % of control.

Source of the values: PubChem BioAssay AID256 (DTP/NCI, 2004).
